Results as given in patent publication US6087355A, “Cephalosporin antibiotics” (Microcide Pharmaceuticals, Inc., priority 1996, dated 2000).
Where a name gives a salt, the structure may show the parent alone.

How the values were obtained:
Test in all cases: In vitro MIC, agar dilution
Assay type in all cases: cell-based
E. coli ATCC 25992 = settings: Escherichia coli, ATCC25992, read-out: minimum inhibitory concentration (MIC)
Experimental: (§1) The compounds of the invention were evaluated against several β-lactamresistant (for example methicillin-resistant, vancomycin resistant, and/or ampicillin-resistant) bacteria strains by determining the minimum inhibitory concentration (MIC, μg/ml) of each compound with respect to each strain. The MIC, the lowest concentration of antibiotic which inhibits growth of the test organism, was determined by the agar dilution method.
(§2) To determine the MIC for bacterial isolates, the test compound was incorporated in a series of two-fold dilutions into liquified Mueller-Hinton agar. Upon solidification, a number of different bacterial strains were spot inoculated with a replicating device onto the agar surface.
(§3) Aliquots of antimicrobial agents were prepared in phosphate buffered saline (PBS) at pH 7.2. Tween 20 or DMSO was used as a solubilizing vehicle as needed. Standard methods of vortexing, sonicating and gentle heat were used to facilitate solubilizing the test agent. […] A 1.28 mg/mL stock solution was used with a subsequent highest working concentration of 128 μg/mL. Serial two-fold dilutions were done through ≤0.25 μg/mL. Each drug level was tested in duplicate. Two-fold drug dilutions were done in sterile 50 mL tubes with a final drug volume of 5 mL. Upon the addition of 45 mL of molten agar, a 10-fold dilution resulted. Two, 25 mL. plates were then poured into 15×150 mm square Petri plates with grids and allowed to harden.
(§4) A control plate with a reference drug, either cefotaxime, vancomycin or imipenem, was used as the positive growth control. Stock concentrations of reference antibiotics were prepared and frozen at -80° C. […] All test plates were used within 24 hours of preparation.
(§5) Satisfactory results were obtained where the inoculum contained about 10^4 colony forming units (cfu)±0.5 logs. Starting with pure cultures of the test isolates on agar plates, a few isolated colonies were transferred to a tube of nutrient broth and allowed to grow 4-6 hours at 35-36° C. to reach log-phase growth. Dropwise addition of the broth culture to PBS was done to match a 0.5 McFarland turbidity standard equal to 10^8 cfu/mL. This was further diluted ten-fold in PBS to reach a working inoculum concentration of 10^7 cfu/mL. When 1 μL of the working inoculum was applied to the agar surface a concentration of about 10^4 cfu per spot was obtained.
(§6) Disposable sterile 1 μL loops were used to inoculate test plates, with each isolate in a designated grid on the agar plate. An alternate method of inoculation involved the use of a replica plater, a device with 48 steel pins allowing the simultaneous inoculation of multiple isolates. After the spots had dried, the plates were incubated at 35-36° C. for 16-20 hours. Endpoints were assessed as the minimum inhibitory concentration (MIC) of antimicrobial agent.

E. faecalis ATCC 29212 = settings: Enterococcus faecalis, ATCC29212, read-out: minimum inhibitory concentration (MIC)
Experimental: as §1, §2, §3, §4, §5, §6

E. faecalis VanB(Van^R) = settings: Enterococcus faecalis, read-out: minimum inhibitory concentration (MIC)
Experimental: as §1, §2, §3, §4, §5, §6

E. faecium A491(Amp^R) = settings: Enterococcus faecium, read-out: minimum inhibitory concentration (MIC)
Experimental: as §1, §2, §3, §4, §5, §6

E. faecium ATCC 35667 = settings: Enterococcus faecium, ATCC35667, read-out: minimum inhibitory concentration (MIC)
Experimental: as §1, §2, §3, §4, §5, §6

E. faecium VanA(Van^R) = settings: Enterococcus faecium, read-out: minimum inhibitory concentration (MIC)
Experimental: as §1, §2, §3, §4, §5, §6

P. aeruginosa ATCC 27853 = settings: Pseudomonas aeruginosa, ATCC27853, read-out: minimum inhibitory concentration (MIC)
Experimental: as §1, §2, §3, §4, §5, §6

[1] = tested on: S. aureus 76(Meth^R)(lac^+); settings: Staphylococcus aureus, read-out: minimum inhibitory concentration (MIC)
Experimental: as §1, §2, §3, §4, §5, §6

[2] = tested on: S. aureus ATCC 13709(Meth^S); settings: Staphylococcus aureus, ATCC13709, S. aureus ATCC 13709(Meth^S); read-out: minimum inhibitory concentration (MIC)
Experimental: as §1, §2, §3, §4, §5, §6

S. aureus ATCC 29213 = settings: Staphylococcus aureus, ATCC29213, read-out: minimum inhibitory concentration (MIC)
Experimental: as §1, §2, §3, §4, §5, §6

[3] = tested on: S. aureus ATCC 33593(Meth^R); settings: Staphylococcus aureus, ATCC33593, read-out: minimum inhibitory concentration (MIC)
Experimental: as §1, §2, §3, §4, §5, §6

[4] = tested on: S. aureus PC1(Meth^S)(lac^+); settings: Staphylococcus aureus, read-out: minimum inhibitory concentration (MIC)
Experimental: as §1, §2, §3, §4, §5, §6

[5] = tested on: S. aureus Spain #356(Meth^R); settings: Staphylococcus aureus, read-out: minimum inhibitory concentration (MIC)
Experimental: as §1, §2, §3, §4, §5, §6

[6] = tested on: S. haemolyticus 05(Meth^R); settings: Staphylococcus haemolyticus, read-out: minimum inhibitory concentration (MIC)
Experimental: as §1, §2, §3, §4, §5, §6

[7] = tested on: S. aureus Col(Meth^R)(lac^-); settings: Staphylococcus aureus, read-out: minimum inhibitory concentration (MIC)
Experimental: as §1, §2, §3, §4, §5, §6
The S. aureus Col strain is a high-level PBP2a producer, whereas S. aureus Col 8A, its isogenic partner, lacks PBP2a.

| SMILES | MIC (E. coli ATCC 25992) [µg/mL] | MIC (E. faecalis ATCC 29212) [µg/mL] | MIC (E. faecalis VanB(Van^R)) [µg/mL] | MIC (E. faecium A491(Amp^R)) [µg/mL] | MIC (E. faecium ATCC 35667) [µg/mL] | MIC (E. faecium VanA(Van^R)) [µg/mL] | MIC (P. aeruginosa ATCC 27853) [µg/mL] | MIC [1] [µg/mL] | MIC [2] [µg/mL] | MIC (S. aureus ATCC 29213) [µg/mL] | MIC [3] [µg/mL] | MIC [4] [µg/mL] | MIC [5] [µg/mL] | MIC [6] [µg/mL] | MIC [7] [µg/mL] |
| --- | --- | --- | --- | --- | --- | --- | --- | --- | --- | --- | --- | --- | --- | --- | --- |
| CC(N)CSCc1cnccc1SC1=C(C(=O)O)N2C(=O)[C@@H](NC(=O)/C(=N\O)c3nc(N)sc3Cl)[C@H]2SC1 (stereo partly drawn) [Cmpd 36, (7R)-7-[(Z)-2-(2-amino-5-chlorothiazol-4-yl)-2-(hydroxyimino)acetamido]-3-(3-(2-aminoprop-1-ylthiomethyl)pyrid-4-ylthio)-3-cephem-4-carboxylate, trifluoroacetic acid salt] | 16 | 0.25 | 0.13 | 8 | 0.5 | 1 | > 32 | 2 | 0.25 | 0.5 | 1 | 0.25 | 1 | 2 | 1 |
| CNCCSCc1cnccc1SC1=C(C(=O)O)N2C(=O)[C@@H](NC(=O)/C(=N\O)c3nc(N)sc3Cl)[C@H]2SC1 [Cmpd 41, (7R)-7-[(Z)-2-(2-amino-5-chlorothiazol-4-yl)-2-(hydroxyimino)acetamido]-3-(3-(2-N-methylaminoethylthiomethyl)pyrid-4-ylthio)-3-cephem-4-carboxylate, trifluoroacetic acid salt] | 4 | ≤ 0.06 | ≤ 0.06 | 8 | 0.25 | 1 | 32 | 1 | 0.13 | 0.13 | 1 | 0.25 | 1 | 1 | 1 |
| NCC#CCc1cnccc1SC1=C(C(=O)O)N2C(=O)[C@@H](NC(=O)/C(=N\O)c3nc(N)sc3Cl)[C@H]2SC1 [Cmpd 48, (7R)-7-[(Z)-2-(2-amino-5-chlorothiazol-4-yl)-2-(hydroxyimino)acetamido]-3-(3-(4-amino-2-butyn-1-yl)pyrid-4-ylthio)-3-cephem-4-carboxylate, trifluoroacetic acid salt] | 4 | 0.25 | 0.5 | 32 | 1 | 4 | > 32 | 8 | 0.25 | 0.5 | 4 | 0.5 | 8 | 16 | 4 |
| CC(N)COCc1cnccc1SC1=C(C(=O)O)N2C(=O)[C@@H](NC(=O)/C(=N\O)c3nc(N)sc3Cl)[C@H]2SC1 (stereo partly drawn) [Cmpd 49, (7R)-7-[(Z)-2-(2-amino-5-chlorothiazol-4-yl)-2-(hydroxyimino)acetamido]-3-(3-(2-aminopropyloxymethyl)pyrid-4-ylthio)-3-cephem-4-carboxylate, trifluoroacetic acid salt] | 8 | 0.13 | 0.13 | 16 | 1 | 2 | > 32 | 2 | 0.25 | 0.25 | 2 | 0.5 | 2 | 4 | 2 |
| NCCCSc1cnccc1SC1=C(C(=O)O)N2C(=O)[C@@H](NC(=O)/C(=N\O)c3nc(N)sc3Cl)[C@H]2SC1 [Cmpd 51, (7R)-7-[(Z)-2-(2-amino-5-chlorothiazol-4-yl)-2-(hydroxyimino)acetamido]-3-(3-(3-aminopropylthio)pyrid-4-ylthio)-3-cephem-4-carboxylate, trifluoroacetic acid salt] | 8 | 0.13 | 0.25 | 8 | 0.13 | 1 | > 32 | 4 | 0.5 | 0.25 | 2 | 0.5 | 2 | 2 | 2 |
